Test system: Mold, yeast, and bacteria
Test: The antiseptic effectiveness evaluation test
Type: cell-based
Protocol: The Antiseptic Effectiveness Evaluation Test 30 ml of the sample was inoculated with microbe-containing fluid, and the change in the number of microbes was checked with the smearing method. Mold, yeast, and bacteria were used as the inoculation microbes. The antiseptic effectiveness was evaluated based on the changes in the number of the microbes in two weeks, and the obtained results were classified by using the following four step criterion. […] X: No reduction in microbes was observed.

## CCCCC(CC)(CO)CO [2-n-butyl-2-ethyl-1,3-propanediol]
1,3-butylene glycol additionally blended into the composition
  concentration at which an adequate effect on bacteria was confirmed: 0.1%
Lotions of Table 1-2, effect on all the mold, yeast, and bacteria
  concentration of 2-n-butyl-2-ethyl-1,3-propanediol at which the compositions showed adequate antiseptic effectiveness: ≥ 0.5%

Source: patent publication US6620418B1, “Antiseptic/antifungal agent and endermic liniment composition which contains it” (Shiseido Company, Ltd., priority 1999, dated 2003)
